Measured values from patent US9701711B2, “Modulators of protease activated receptors” (THE UNIVERSITY OF QUEENSLAND, priority 2010, dated 2017).
Values belong to the molecule of their own block, whether it stands above or below them.

Assays:
PAR2 [1] = target: T1, PAR2 (Homo sapiens, UniProt P55085); assay: PAR2 agonist inhibition (antagonism) by intracellular Ca2+ release in HT29 cells; assay type: cell-based; parameters: Agonists of Ca^2+ release in HT29 cells; endogenous in cells; host or cells: HT29 (human cell line, cultured per ATCC information); settings: HT29 cells; 30 min pre-incubation, then PAR2 agonist (1 μM 2f-LIGRLO-NH2); read-out: IC50, inhibition of Ca2+ release in HT29 cells
T1 sequence (P55085 26-397): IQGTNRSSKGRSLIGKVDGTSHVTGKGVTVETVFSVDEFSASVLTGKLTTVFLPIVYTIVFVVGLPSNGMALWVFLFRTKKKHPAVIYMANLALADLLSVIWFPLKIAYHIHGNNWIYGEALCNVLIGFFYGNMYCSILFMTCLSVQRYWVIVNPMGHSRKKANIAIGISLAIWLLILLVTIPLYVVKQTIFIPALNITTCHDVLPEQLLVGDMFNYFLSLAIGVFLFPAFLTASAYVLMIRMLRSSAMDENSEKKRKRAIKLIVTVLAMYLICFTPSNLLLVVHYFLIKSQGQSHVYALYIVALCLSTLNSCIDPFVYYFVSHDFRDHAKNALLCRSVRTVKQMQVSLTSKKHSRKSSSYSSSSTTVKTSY
Source text: The ability of the compounds of the present invention to activate PAR2 may be assessed via calcium mobilisation assays. It is appreciated that compounds that activate the release of intracellular calcium from one type of cell are agonists or partial agonists, while those that inhibit such release may be antagonists. […] The general assay protocols may vary slightly depending on the chosen cell line. In general, during cell culture passage, cell dissociation solution (CDS, Sigma Aldrich) is used to replace trypsin to dissociate cells from surface. Lipopolysaccharide (LPS) and trypsin are purchased from Sigma Aldrich. […] ELISA sets are purchased from BD Pharmingen (San Jose, Calif.) and cytokine array kits are purchased from RayBiotecho (Norcross, Ga.).
Cells are seeded overnight in 96-well black walled, clear bottomed, plate at approximately 2×10^4 to 4×10^5 cells per well. […] The cells are then washed twice with HBSS and transferred to a Polarstar spectrotluorimeter (BMG, Durham N.C.).
The cells are prepared as outlined above then treated with the “putative” antagonist 30 min prior to the addition of either trypsin or a synthetic agonist at a concentration equal to the agonists ED80.
The cells were then treated with 1 μM of the PAR2 agonist 2f-LIGRLO-NH2 (FIG. 2A. n=5) or 100 nM Trypsin (FIG. 2B, n=1). Each data point represents mean±SEM. Net changes in fluorescence were calculated as a percentage relative to the maximum response given 1 μM 2f-LIGRLO-NH2 or 100 nM Trypsin. Changes in fluorescence (% response) were plotted against logarithmic compound concentrations. The half maximal inhibitory concentration (IC50) values were derived from the dose response curve using a nonlinear regression curve in Graphpad Prism v5.

PAR2 [2] = target: T2, PAR2 (Rattus norvegicus, UniProt Q63645); assay: Acute inflammatory model: PAR2-induced paw oedema; assay type: in vivo; settings: Wistar rat, 10 mg/kg p.o. in olive oil, n=3; agonist 350 μg/paw 2 h after oral dose
T2 construct: from tissue; host or cells: paw of living male Wistar rats
T2 sequence (Q63645 26-397): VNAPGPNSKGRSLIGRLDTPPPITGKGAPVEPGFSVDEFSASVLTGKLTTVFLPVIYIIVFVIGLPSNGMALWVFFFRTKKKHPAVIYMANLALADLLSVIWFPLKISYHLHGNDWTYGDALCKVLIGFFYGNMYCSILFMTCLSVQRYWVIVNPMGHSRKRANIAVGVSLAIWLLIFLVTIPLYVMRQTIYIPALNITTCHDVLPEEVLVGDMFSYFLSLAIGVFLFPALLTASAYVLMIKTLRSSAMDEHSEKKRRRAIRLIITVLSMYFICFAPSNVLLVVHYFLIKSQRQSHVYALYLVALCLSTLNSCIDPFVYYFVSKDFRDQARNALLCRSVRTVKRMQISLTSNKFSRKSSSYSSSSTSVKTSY
Method: FIG. 9. Graphical representation of the ability of PAR2 antagonists 18, 30, 42, 44 to attenuate experimental paw oedema.
The methods used are based on those previously described (Kelso. E. B., et al. Arthritis Rheum 2007, 56, 765-71; Kelso. E. B., et al. J Pharmacol Exp Ther 2006, 316, 1017-24; and Vergnolle, N. J Immunol 1999, 163, 5064-9). Male Wistar rats (n=3 per group) are used. Briefly, rats are given either 5 or 10 mg/kg of a compound of the present invention (p.o. via gavage in olive oil, approx. 500 μL, weight adjusted). Control animals receive only olive oil (500 μL p.o.). Two hours later, the PAR2 agonist 2-furoyl-LIGRLO (350 μg/paw in saline, 100 μL) is injected into the plantar surface (i.pl.) of the right paw pad using a 30 G needle. The left paw acts as a control, receiving saline only. Paw thickness and width are measured after 30 minutes and hourly using digital calipers (World Precision Instruments, USA) and swelling is calculated in area (mm^2; thickness multiplied by width) and expressed as a percentage change from baseline of each individual paw. Results for exemplary PAR2 ligands 18, 30, 42 and 44 are illustrated in FIG. 9.

[3] = Stability in rat liver homogenate; assay type: in vitro ADME; settings: 10 μM, 37° C., up to 180 minutes
Method: Blood and liver is collected form non-drug dosed male and female Wistar rats (aged 8-9 weeks, 200-250 g and 250-300 g respectively). Bloods are centrifuged at 8 K rpm for 5 min. Plasma are pooled and stored at −80° C. for later use. The rat livers are homogenized, diluted with three volumes of PBS, cloth filtered. The filtrate is used directly for stability studies.
Lach compound is dissolved in DMSO to make […] stock solution. 10 μL of the stock is diluted with either rat plasma or liver homogenate (490 μL) to make up a starting concentration of 10 μM (triplicates). The mixtures are vortexed and incubated at 37° C. At each time point of 0, 30, 60 and 180 minutes. 100 μL of the mixture is taken and diluted with 300 μL of acetonitrile. The mixture is vortexed and centrifuged, 350 μL of the liquid is transferred into a microfuge tube and concentrated using a rotational vacuum concentrator (Christ Beta-RVC, supplied by Quantum Scientific). 100 μL of acetonitrile water (9:1, v/v) is added to the residue, vortexed and immediately analysed by LCMS/MS. Data from these experiments are expressed as percent of peak area recorded from the LCMS/MS trace at time zero (t0).

PAR2 [4] = target: T1, PAR2; settings: cited from earlier work

IC50 (PAR2 [1]): 1000 nM
Paw swelling induced by 2-f-LIGRLO-NH2 (PAR2 [2]): reduced the paw swelling
Stability in rat liver homogenate [3]: decomposed to varied degree
Molecule: CO[C@H](C)[C@H](NC(=O)[C@H](CC1CCCCC1)NC(=O)c1ccno1)C(=O)N1CCC2(C=Cc3ccccc32)CC1 [Compound 44, 5-isoxazoyl-Cha-Thr(Me)-spiro[indene-1,4′-piperidine]]

Paw swelling induced by 2-f-LIGRLO-NH2 (PAR2 [2]): reduced the paw swelling
Stability in rat liver homogenate [3]: decomposed to varied degree
Molecule: CC[C@H](C)[C@H](NC(=O)[C@H](CC1CCCCC1)NC(=O)c1cc(N)no1)C(=O)N1CCC2(C=Cc3ccccc32)CC1 [Compound 42, 5-(3-amino-isoxazoyl)-Cha-Ile-spiro[indene-1,4′-piperidine]]

Second part, the molecule before the results:

Molecule: 2-furoyl-LIGRL-NH2
Selectivity for PAR2 over PAR1 (PAR2 [4]): selective for PAR2 over PAR1
Agonist potency relative to SLIGRL-NH2 (PAR2 [4]; higher agonist potency than SLIGRL-NH2): ~20 fold

Molecule: CC[C@H](C)[C@H](NC(=O)[C@H](CC1CCCCC1)NC(=O)c1ccno1)C(=O)N1CCC(c2ccccc2)CC1 [Compound 30, 5-isoxazoyl-Cha-Ile-(4-phenyl)piperidine]
Paw swelling induced by 2-f-LIGRLO-NH2 (PAR2 [2]): reduced the paw swelling
Stability in rat liver homogenate [3]: decomposed to varied degree

Molecule: CC[C@H](C)[C@H](NC(=O)[C@H](CC1CCCCC1)NC(=O)c1ccno1)C(=O)NCc1ccccc1OC [Compound 18, 5-isoxazoyl-Cha-Ile-aminomethyl-(2-methoxy)phenyl]
IC50 (PAR2 [1]): 500 ± 100 nM
Paw swelling induced by 2-f-LIGRLO-NH2 (PAR2 [2]): reduced the paw swelling
Stability in rat liver homogenate [3]: decomposed to varied degree
